The results in this text go back to patent US12472226B2, “Cell-permeable peptide” (priority 2019, dated 2025).

Non-standard residues stand in square brackets, D forms with d. No end group written: not given here. *: point of attachment. FITC = O=C1OC2(c3ccc(O)cc3Oc3cc(O)ccc32)c2ccc(NC(=S)*)cc21; Ahx = NCCCCCC(=O)O

The target in one assay is T1, CD13 on HT-1080 cells (Homo sapiens, UniProt P15144).
T1 construct: endogenous in cells; host or cells: HT-1080 cells
Description: Binding test to cell membrane (confocal, CD13 co-staining). The class given is cell-based. As to conditions: 1 μg/100 μL, 4° C., 1 hour. As to the method: (§1) A PE-labeled human CD13 antibody (Clone: WM-15 Biolegend) ([…]) and Example 2 (1 μg/100 μL) were added to each of the cells (500,000 cells/[…]), and the cells were stained at 4° C. for 1 hour. After the cells were washed with PBS, CD13 expression of each cell and binding site of Example 2 were observed as the standard of the fluorescence intensity of the HT-1080 cells using the confocal laser scanning microscope LSM800. The expression of CD13 (red) was strongest and the luminescence of Example 2 (green) was also strong in the HT-1080 and Gin-1 cells. […] Further, the same phenomenon about CD13 expression was also recognized in the U937, HL-60, THP-1 and Hos cells (not shown).

The target in the next assay is T2, CD13 on Gin-1 cells (Homo sapiens, UniProt P15144).
T2 construct: endogenous in cells; host or cells: Gin-1 cells
T2 sequence (P15144 whole entry): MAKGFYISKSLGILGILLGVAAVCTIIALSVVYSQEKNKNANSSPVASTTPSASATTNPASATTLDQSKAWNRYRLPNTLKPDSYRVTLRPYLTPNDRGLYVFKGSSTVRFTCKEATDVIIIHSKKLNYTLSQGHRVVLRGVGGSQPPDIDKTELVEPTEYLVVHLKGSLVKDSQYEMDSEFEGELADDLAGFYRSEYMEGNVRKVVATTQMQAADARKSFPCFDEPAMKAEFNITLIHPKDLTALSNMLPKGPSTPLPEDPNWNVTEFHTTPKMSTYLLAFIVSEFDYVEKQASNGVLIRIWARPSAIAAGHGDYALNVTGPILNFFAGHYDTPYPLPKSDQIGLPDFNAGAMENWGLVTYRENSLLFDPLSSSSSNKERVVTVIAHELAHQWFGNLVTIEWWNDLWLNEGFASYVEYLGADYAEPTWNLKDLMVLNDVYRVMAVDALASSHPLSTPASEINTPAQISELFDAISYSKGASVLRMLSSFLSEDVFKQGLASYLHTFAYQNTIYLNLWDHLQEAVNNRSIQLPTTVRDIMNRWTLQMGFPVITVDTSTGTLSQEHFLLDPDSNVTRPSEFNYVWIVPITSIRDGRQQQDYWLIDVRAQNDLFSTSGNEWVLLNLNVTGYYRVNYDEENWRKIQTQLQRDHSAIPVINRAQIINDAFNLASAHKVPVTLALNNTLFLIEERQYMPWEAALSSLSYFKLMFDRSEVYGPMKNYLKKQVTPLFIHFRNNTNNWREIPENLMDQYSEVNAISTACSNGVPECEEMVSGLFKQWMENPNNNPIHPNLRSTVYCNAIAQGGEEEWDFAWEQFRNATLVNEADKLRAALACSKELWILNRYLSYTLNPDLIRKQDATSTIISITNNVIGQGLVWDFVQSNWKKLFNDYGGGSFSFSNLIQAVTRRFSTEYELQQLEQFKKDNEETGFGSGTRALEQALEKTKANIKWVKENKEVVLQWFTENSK
The assay is described as above. It is filed as cell-based. As to conditions: 1 μg/100 μL, 4° C., 1 hour. As to the method: as §1

The test system of the next assay is HuH7 cells. Description: Test on nuclear transport (confocal Z scan, DAPI). It is filed as cell-based, human. As to conditions: 50μ/mL, 23 days. From the text:
(§2) Human fibrosarcoma-derived HT-1080 cells (HT-1080 cells, JCRB cell bank) were used as cancer cells in the test for monitoring changes in mitochondrial membrane potential. HT-1080 cells, human osteosarcoma cell line Hos cells (Hos cells, JCRB cell bank), human histiocytic lymphoma/macrophage U937 cells (U937 cells, JCRB cell bank), human myeloid leukemia HL-60 cells (HL-60 cells, JCRB cell bank), acute monocytic leukemia THP-1 cells (THP-1 cells, JCRB cell bank), human alveolar basal epithelial adenocarcinoma cell A549 cells (A549 cells, Cell Resource Center for Biomedical Research, Institute of Development, Aging and Cancer, Tohoku University), human pancreatic carcinoma cells (MIA Paca 2 cells, Cell Resource Center for Biomedical Research, Institute of Development, Aging and Cancer, Tohoku University) and well differentiated human liver carcinoma-derived cell line HuH7 cells (HuH7 cells, Cell Resource Center for Biomedical Research, Institute of Development, Aging and Cancer, Tohoku University) were used as cancer cells in an in vitro cell-death induction test of cancer cells and a nuclear transport test of Example 2. Normal human gingival fibroblast cells Gin-1 (Gin-1 cells, DS Pharma Biomedical) were used as a control. The above-described cells were each inoculated into a 96-well culture plate (Falcon) at 5,000 cells/[…] and subjected to the following tests.
(§3) Similarly, 50μ/mL of Example 2 was added to the A549, MIA Paca2 and HuH7 cells. The cells were cultured for 23 days and then scanned by the Z scan technique using the confocal laser scanning microscope LSM800 after dyed with DAPI. FIG. 5B is each photograph of XY, XZ and YZ cross sections that were merged with Example 2 (green) and DAPI (blue) in the variety of cancer cells. As a result, the color of the images merged with Example 2 and DAPI dye took on light blue.

In the next assay the test system is MIA Paca2 cells. The assay is described as follows: Test on nuclear transport (confocal Z scan, DAPI). As to conditions: 50μ/mL, 23 days. The class given is cell-based, human.
Description: as §2, §3

A further assay concerns A549 cells. Description: Test on nuclear transport (confocal Z scan, DAPI). The conditions noted are these: 50μ/mL, 23 days. It is filed as cell-based, human.
Description: as §2, §3

Another assay deals with HT-1080 cells. Description: Test on nuclear transport (confocal, DAPI). The conditions noted are these: 50 μg/mL; for intracellular localization: HT-1080 cells. It is filed as cell-based, human.
Description: as §2
The cells were cultured in 200 μL of serum-supplemented medium (α-MEM+10% FBS) to be 50 μg/mL at the final concentration of Example 2 for 3 or 9 days. The cell-death was not detected in the culture on day 3. On the contrary, since the cell-death was detected in the culture on day 9, the day 9 culture as described above was used for the tests. The above each cell was separated and transferred to a Cellview glass bottom dish (35×10 mm) (Greiner). The cells on day 3 were fixed with 10% formalin-ethanol and then dyed with DAPI. The cells on day 9 were dyed with DAPI without fixation.
FIG. 4 is the photographs of Example 2 (green), DAPI (blue), overlay images of Example 2 (green) and DAPI (blue) and differential interference image on the HT-1080 cells on day 3 or 9.

The subject of another assay is Gin-1 cells. Description: Test on nuclear transport (confocal Z scan, DAPI). The class given is cell-based, human. As to conditions: 50 μg/mL, 9 days.
Description: as §2
(§4) Further, 50 μg/mL of Example 2 was added to the Gin-1 or above cancer cells. The cells were cultured for 9 days and scanned with Z scan technique using the confocal laser scanning microscope LSM800 after dyed with DAPI. FIG. 5A is each photograph of XY, XZ and YZ cross sections that was merged with Example 2 (green) and DAPI (blue) in the Gin-1 or above-described cancer cells. […] The color of the images merged with the Example 2 and DAPI dye took on light blue in the U937, H1-60, THP-1 and Hos cells.

The subject of a further assay is Hos cells. Description: Test on nuclear transport (confocal Z scan, DAPI). It is filed as cell-based, human. The conditions noted are these: 50 μg/mL, 9 days.
Description: as §2, §4

The test system of a further assay is THP-1 cells. The assay is described as follows: Test on nuclear transport (confocal Z scan, DAPI). The class given is cell-based, human. The conditions noted are these: 50 μg/mL, 9 days.
Description: as §2, §4

The next assay relates to U937 cells. The assay is described as follows: Test on nuclear transport (confocal Z scan, DAPI). The class given is cell-based, human. The conditions noted are these: 50 μg/mL, 9 days.
Description: as §2, §4

The next assay has as its system HL-60 cells. The assay is described as follows: Test on nuclear transport (confocal Z scan, DAPI). It is filed as cell-based, human. As to conditions: H1-60 cells, 50 μg/mL, 9 days.
Description: as §2, §4

T1 sequence (P15144 whole entry): as above

With “Example 2: peptide of SEQ ID NO: 1 labeled with FITC, bound via an Ahx linker at the N-terminus ({FITC}-[Ahx]KDNRGNLLQCVCTGNGRGEWKC; cysteine pairing not given here)”, the “colocalization with CD13 (overlay images)” value with CD13 on HT-1080 cells and in the assay with CD13 on Gin-1 cells was “colocalized” in each case. Further, the “luminescence of the peptide (green) on cells” value with CD13 on HT-1080 cells and in the assay with CD13 on Gin-1 cells was “strong” throughout. The intracellular localization result in the assay on HuH7 cells was “transfer to a nucleus and bind to a chromosome DNA”; in the assay on MIA Paca2 cells it was “transfer to a nucleus and bind to a chromosome DNA”; with A549 cells it was “transfer to a nucleus and bind to a chromosome DNA”; with HT-1080 cells (day 3), “present at a cytoplasm”; in the assay on HT-1080 cells (day 9), “transferred to a nucleus and bound to a chromosome DNA”; with Gin-1 cells, “remain still in the cytoplasm”. The intracellular localization entry with Hos cells was “transfer to a nucleus and bind to a chromosome DNA”; in the assay with THP-1 cells, “transfer to a nucleus and bind to a chromosome DNA”; with U937 cells, “transfer to a nucleus and bind to a chromosome DNA”; in the assay with HL-60 cells it was “transfer to a nucleus and bind to a chromosome DNA”. The entries for the “cell-death in the culture” value in the assay with HT-1080 cells (day 3) and in the assay on HT-1080 cells (day 9) were “not detected” and “detected”, respectively.
